Results: patent EP4603105A1, “PHARMACEUTICAL COMPOSITION CONTAINING CYCLIC COMPOUND HAVING SELECTIVE KRAS INHIBITORY EFFECT AGAINST HRAS AND NRAS” (CHUGAI SEIYAKU KABUSHIKI KAISHA, priority 2022, dated 2024)
Like-named read-outs stand apart in the source and are kept apart here. Where a SMILES comes first, the peptide text is derived from it. Bridges are numbered along the chain shown (N, C = ends). [ ]: non-standard residue; d: D form. The star is where a group is joined. hPhe(3-Cl-4-CF3) = N[C@@H](CCc1ccc(C(F)(F)F)c(Cl)c1)C(=O)O; NPrPhe(4-CF3) = CCCN[C@@H](Cc1ccc(C(F)(F)F)cc1)C(=O)O; NEtPhe(4-Me) = CCN[C@@H](Cc1ccc(C)cc1)C(=O)O; NMeGly(cPent) = CN[C@H](C(=O)O)C1CCCC1; Hyp = O=C(O)[C@@H]1C[C@@H](O)CN1; NMeD = CN[C@@H](CC(=O)O)C(=O)O; NMeL = CN[C@@H](CC(C)C)C(=O)O; Morpholide = C1CN(*)CCO1; NMeA = CN[C@@H](C)C(=O)O; Ac5c = NC1(C(=O)O)CCCC1; Aze = O=C(O)[C@@H]1CCN1; Sar = CNCC(=O)O

Key:
[1] = tested on: human lung cancer strain NCI-H441; type: cell-based
How it was run: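 Step one: dispense the test compound in serial DMSO dilutions. Step three: add the reagent and measure […].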

HRAS wild-type protein = HRAS wild-type protein (Homo sapiens, UniProt P01112); assay: Binding to HRAS by surface plasmon resonance (SPR), KD and KD ratio to KRAS
HRAS wild-type protein, sequence (P01112 whole entry): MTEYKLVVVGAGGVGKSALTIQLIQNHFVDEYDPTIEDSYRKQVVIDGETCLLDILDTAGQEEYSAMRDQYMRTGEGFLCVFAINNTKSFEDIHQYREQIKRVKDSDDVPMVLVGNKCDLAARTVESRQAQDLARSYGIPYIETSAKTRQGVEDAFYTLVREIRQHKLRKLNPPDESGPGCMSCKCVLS
How it was run: (§1)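 Captured GDP-RAS (~100–300 RU) was exposed to increasing compound concentrations, 75 s per step, in running buffer with 10 µM GDP, 10 mM MgCl2 and 4% DMSO at pH 7.4.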

[2] = biological target: GDP-bound NRAS wild-type protein (Homo sapiens, UniProt P01111); assay: Binding to NRAS by surface plasmon resonance (SPR), KD and KD ratio to KRAS
GDP-bound NRAS wild-type protein, sequence (P01111 whole entry): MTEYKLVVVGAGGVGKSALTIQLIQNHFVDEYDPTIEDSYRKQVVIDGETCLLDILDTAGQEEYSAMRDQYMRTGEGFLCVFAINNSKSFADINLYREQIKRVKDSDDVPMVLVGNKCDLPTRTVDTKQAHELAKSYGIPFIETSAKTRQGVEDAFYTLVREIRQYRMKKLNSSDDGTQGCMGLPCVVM
How it was run: as §1

[3] = ratio of the KD value with respect to HRAS wild-type protein to the KD value with respect to KRAS
[4] = ratio of the KD value with respect to GDP-bound NRAS wild-type protein to the KD value with respect to KRAS
[5] = ratio of KD value for HRAS wild-type protein to KD value for KRAS (SPR)
[6] = ratio of KD value for GDP-bound NRAS wild-type protein to KD value for KRAS (SPR)
[7] = ratio of KD for HRAS wild-type protein to KD for KRAS
[8] = ratio of KD for GDP-bound NRAS wild-type protein to KD for KRAS

SMILES	IC50 [1] [nM]	HRAS /KRAS (HRAS wild-type protein; [3])	NRAS /KRAS [2, 4]	HRAS /KRAS (HRAS wild-type protein; [5])	NRAS /KRAS [2, 6]	HRAS /KRAS (HRAS wild-type protein; [7])	NRAS /KRAS [2, 8]	IC50 ([1]; NCI-H441 cells, 4 days, CellTiter-Glo, read-out: NCl-H441 IC50) [nM]
C#CCN1CC(=O)N(C)[C@H]2C/C=C\CCN(C2=O)[C@@H](Cc2ccc(C(F)(F)F)cc2)C(=O)N(C)CC(=O)N[C@@H](CCc2ccc(C(F)(F)F)c(OC)c2)C(=O)N2C[C@H](OCC)C[C@H]2C(=O)NC2(CC(C)(C)C2)C(=O)N(C)[C@@H](C2CCCC2)C(=O)N(C)[C@H](C(=O)N(C)C)CC(=O)N(C)[C@@H](CCC)C(=O)N[C@@H]([C@@H](C)CC)C1=O [PP2107]	7.8	A (a compound having 10 or more and less than 20 is denoted as A)	A (a compound having 10 or more and less than 20 is denoted as A)	–	–	–	–	–
CCCOC[C@H]1C(=O)N[C@@H]([C@@H](C)CC)C(=O)N(C)CC(=O)N(C)[C@H]2C/C=C\CCN(C2=O)[C@@H](Cc2ccc(C(F)(F)F)cc2)C(=O)N(C)CC(=O)N[C@@H](CCc2cc(F)c(C(F)(F)F)c(F)c2)C(=O)N2C[C@H](OCC)C[C@H]2C(=O)NC2(CC(C)(C)C2)C(=O)N(C)[C@@H](C2CCCC2)C(=O)N(C)[C@H](C(=O)N(C)CC)CC(=O)N1C [PP1572]	3.6	–	–	A (a compound having 10 or more and less than 20 is denoted as A)	A (a compound having 10 or more and less than 20 is denoted as A)	–	–	–
CCOC[C@H]1C(=O)N[C@@H]([C@@H](C)CC)C(=O)N(C)CC(=O)N(C)[C@H]2C/C=C\CCN(C2=O)[C@@H](Cc2ccc(C(C)(F)F)cc2)C(=O)N(C)CC(=O)N[C@@H](CCc2ccc(C(F)(F)F)c(OC)c2)C(=O)N2C[C@@H](C)C[C@H]2C(=O)NC2(CC(C)(C)C2)C(=O)N(C)[C@@H](C2CCCC2)C(=O)N(C)[C@H](C(=O)N(C)CC)CC(=O)N1C [PP2699]	–	–	–	–	–	B (a compound having 3 or more and less than 10 is denoted as B)	A (a compound having 10 or more and less than 20 is denoted as A)	14.2
CCO[C@@H]1C[C@H]2C(=O)NC3(CC(C)(C)C3)C(=O)N(C)[C@@H](C(CC)CC)C(=O)N(C)[C@H](C(=O)N(C)C)CC(=O)N(C)[C@@H](COC)C(=O)N[C@@H]([C@@H](C)CC)C(=O)N(C)CC(=O)N(C)[C@H]3C/C=C\CCN(C3=O)[C@@H](Cc3ccc(C(F)(F)F)cc3)C(=O)N(C)CC(=O)N[C@@H](CCc3cc(F)c(C(F)(F)F)c(F)c3)C(=O)N2C1 [PP2121]	11.4	A (a compound having 10 or more and less than 20 is denoted as A)	AA (a compound having 20 or more is denoted as AA)	–	–	–	–	–
CCO[C@@H]1C[C@H]2C(=O)NC3(CCC3)C(=O)N(C)[C@@H](C(CC)CC)C(=O)N3CCC[C@@H]3CC(=O)N(C)[C@@H](CC3CC3)C(=O)N[C@@H]([C@@H](C)CC)C(=O)N(C)CC(=O)N(C)[C@H]3C/C=C\CCN(C3=O)[C@@H](Cc3ccc(C(F)(F)F)cc3)C(=O)N(C)CC(=O)N[C@@H](CCc3cc(F)c(C(F)(F)F)c(F)c3)C(=O)N2C1 [PP1612]	61.9	–	–	B (a compound having 3 or more and less than 10 is denoted as B)	B (a compound having 3 or more and less than 10 is denoted as B)	–	–	–
CCC[C@H]1C(=O)N[C@@H]([C@@H](C)CC)C(=O)N(C)CC(=O)N(C)[C@H]2C/C=C\CCN(C2=O)[C@@H](CC2CCC(F)(F)CC2)C(=O)N(C)CC(=O)N[C@@H](CCc2ccc(C(F)(F)F)c(OC)c2)C(=O)N2C[C@H](OCC)C[C@H]2C(=O)N(C)C2(CCC2)C(=O)N(C)[C@@H](C2CCCC2)C(=O)N(C)[C@H](C(=O)N(C)C)CC(=O)N1C [PP2348]	52.7	A (a compound having 10 or more and less than 20 is denoted as A)	A (a compound having 10 or more and less than 20 is denoted as A)	–	–	–	–	–

More lines, main results first:

IC50 [1] [nM]	SMILES	HRAS /KRAS (HRAS wild-type protein; [3])	NRAS /KRAS [2, 4]	HRAS /KRAS (HRAS wild-type protein; [5])	NRAS /KRAS [2, 6]	HRAS /KRAS (HRAS wild-type protein; [7])	NRAS /KRAS [2, 8]	IC50 ([1]; NCI-H441 cells, 4 days, CellTiter-Glo, read-out: NCl-H441 IC50) [nM]
139	CC[C@H](C)[C@@H]1NC(=O)[C@H](CC(C)C)N(C)C(=O)C[C@@H](C(=O)N2CCOCC2)N(CC)C(=O)[C@H](C2CCCC2)N(C)C(=O)C2(CCCC2)NC(=O)[C@@H]2CCCN2C(=O)[C@H](CCc2cc(F)c(C(F)(F)F)c(F)c2)NC(=O)CN(C)C(=O)[C@H](Cc2ccc(C(F)(F)F)cc2)N2CCCCC[C@@H](C2=O)N(C)C(=O)CN(C)C1=O [PP0477]	A (a compound having 10 or more and less than 20 is denoted as A)	A (a compound having 10 or more and less than 20 is denoted as A)	–	–	–	–	–
2	CC[C@H](C)[C@@H]1NC(=O)[C@H](CC2CCCC2)N(C)C(=O)C[C@@H](C(=O)N(C)C)N(C)C(=O)[C@H](C2CCCC2)N(C)C(=O)C2(CCC2)NC(=O)[C@@H]2C[C@@H](F)CN2C(=O)[C@H](CCc2cc(F)c(C(F)(F)F)c(F)c2)NC(=O)CN(C)C(=O)[C@H](Cc2ccc(C(F)(F)F)cc2)N2CC/C=C\C[C@@H](C2=O)N(C)C(=O)CN(C)C1=O [PP1502]	–	–	A (a compound having 10 or more and less than 20 is denoted as A)	A (a compound having 10 or more and less than 20 is denoted as A)	–	–	–
9.8	CC[C@H](C)[C@@H]1NC(=O)[C@H](CC(C)C)N(C)C(=O)C[C@@H](C(=O)N2CCOCC2)N(C)C(=O)[C@H](C2CCCC2)N(C)C(=O)C2(CCCC2)NC(=O)[C@@H]2C[C@@H](O)CN2C(=O)[C@H](CCc2ccc(C(F)(F)F)c(Cl)c2)NC(=O)CN(C)C(=O)[C@H](Cc2ccc(C)cc2)N(CC)C(=O)[C@@H]2CCN2C(=O)[C@H](C)N(C)C1=O [PP0013] ([NMeL]I[NMeA][Aze][NEtPhe(4-Me)][Sar][hPhe(3-Cl-4-CF3)][Hyp][Ac5c][NMeGly(cPent)][NMeD]-Morpholide; lactam N-11)	–	–	–	–	C (A compound having a KD ratio of 0.1 or more and less than 3 is denoted as C)	C (A compound having a KD ratio of 0.1 or more and less than 3 is denoted as C)	–
22.6	CCOC[C@H]1C(=O)N[C@@H]([C@@H](C)CC)C(=O)N(C)CC(=O)N(C)[C@H]2C/C=C\CCN(C2=O)[C@@H](Cc2ccc(C(F)(F)F)cc2)C(=O)N(C)CC(=O)N[C@@H](CCc2ccc(C(F)(F)F)c(OC)c2)C(=O)N2C[C@@H](C)C[C@H]2C(=O)NC2(CCC2)C(=O)N(C)[C@@H](C2CCCC2)C(=O)N(C)[C@H](C(=O)N(C)CC)CC(=O)N1C [PP2026]	A (a compound having 10 or more and less than 20 is denoted as A)	A (a compound having 10 or more and less than 20 is denoted as A)	–	–	–	–	–
19.8	CCO[C@@H]1C[C@H]2C(=O)NC3(CCC3)C(=O)N(C)[C@@H](C3CCCC3)C(=O)N(C)[C@H](C(=O)N(C)C)CC(=O)N(C)[C@@H](Cc3ccccc3)C(=O)N[C@@H]([C@@H](C)CC)C(=O)N(C)CC(=O)N(C)[C@H]3C/C=C\CCN(C3=O)[C@@H](Cc3ccc(C(F)(F)F)cc3)C(=O)N(C)CC(=O)N[C@@H](CCc3cc(F)c(C(F)(F)F)c(F)c3)C(=O)N2C1 [PP1116]	–	–	–	–	A (a compound having 10 or more and less than 20 is denoted as A)	A (a compound having 10 or more and less than 20 is denoted as A)	–
114	CCO[C@@H]1C[C@H]2C(=O)NC3(CCC3)C(=O)N(C)[C@@H](C3CCCC3)C(=O)N(C)[C@H](C(=O)N(C)C)CC(=O)N(C)[C@@H](Cc3cccc(Cl)c3)C(=O)N[C@@H]([C@@H](C)CC)C(=O)N(C)CC(=O)N(C)[C@H]3CCCCCN(C3=O)[C@@H](Cc3ccc(C(F)(F)F)cc3)C(=O)N(C)CC(=O)N[C@@H](CCc3cc(F)c(C(F)(F)F)c(F)c3)C(=O)N2C1 [PP0939]	–	–	–	–	B (a compound having 3 or more and less than 10 is denoted as B)	B (a compound having 3 or more and less than 10 is denoted as B)	–
33.1	CCCN1C(=O)CN(C)C(=O)CN(C)C(=O)[C@H]([C@@H](C)CC)NC(=O)[C@H](CC(C)C)N(C)C(=O)C[C@@H](C(=O)N(C)C)NC(=O)[C@H](C2CCCC2)N(C)C(=O)C2(CCCC2)NC(=O)[C@@H]2C[C@@H](OCC)CN2C(=O)[C@H](CCc2ccc(C(F)(F)F)c(Cl)c2)NC(=O)CN(C)C(=O)[C@@H]1Cc1ccc(C(F)(F)F)cc1 [PP0359] ([NMeL]I[Sar][Sar][NPrPhe(4-CF3)][Sar][hPhe(3-Cl-4-CF3)][Hyp](Et)[Ac5c][NMeGly(cPent)]D-NMe2; lactam N-11)	–	–	–	–	B (a compound having 3 or more and less than 10 is denoted as B)	B (a compound having 3 or more and less than 10 is denoted as B)	–
12.3	CC[C@H](C)[C@@H]1NC(=O)[C@H](CC)N(C)C(=O)C[C@@H](C(=O)N(C)C)N(C)C(=O)[C@H](C2CCCC2)N(C)C(=O)C2(CC(C)(C)C2)NC(=O)[C@@H]2C[C@H](C)CN2C(=O)[C@H](CCc2ccc(C(F)(F)F)c(Cl)c2)NC(=O)CN(C)C(=O)[C@H](Cc2ccc(C)cc2)N2CC/C=C\C[C@@H](C2=O)N(C)C(=O)CN(C)C1=O [PP1844]	–	–	B (a compound having 3 or more and less than 10 is denoted as B)	A (a compound having 10 or more and less than 20 is denoted as A)	–	–	–
39.8	CCCOC[C@H]1C(=O)N[C@@H]([C@@H](C)CC)C(=O)N(C)CC(=O)N(C)[C@H]2C/C=C\CCN(C2=O)[C@@H](Cc2ccc(C)cc2)C(=O)N(C)CC(=O)N[C@@H](CCc2cc(F)c(C(F)(F)F)c(F)c2)C(=O)N2C[C@H](CCC)C[C@H]2C(=O)NC2(CCCC2)C(=O)N(C)[C@@H](C2CCCC2)C(=O)N(C)[C@H](C(=O)N(C)C)CC(=O)N1C [PP2229]	A (a compound having 10 or more and less than 20 is denoted as A)	A (a compound having 10 or more and less than 20 is denoted as A)	–	–	–	–	–
